Source: publication PMC4772679 (Environmental toxicology and chemistry / SETAC, 2015)
Read-outs that look alike come from different tables or passages of the source. Each block holds one compound with its values, some of them ahead of it.

Key:
[1] = target: T1, ERα (Homo sapiens, UniProt P03372); test: ER-responsive luciferase reporter; type: cell-based; details: read-out: EC50 [M], ERα; SKBR3 cells, ERα expression plasmid, 24 h, mean ± SD of three experiments
T1 sequence (P03372 1-595): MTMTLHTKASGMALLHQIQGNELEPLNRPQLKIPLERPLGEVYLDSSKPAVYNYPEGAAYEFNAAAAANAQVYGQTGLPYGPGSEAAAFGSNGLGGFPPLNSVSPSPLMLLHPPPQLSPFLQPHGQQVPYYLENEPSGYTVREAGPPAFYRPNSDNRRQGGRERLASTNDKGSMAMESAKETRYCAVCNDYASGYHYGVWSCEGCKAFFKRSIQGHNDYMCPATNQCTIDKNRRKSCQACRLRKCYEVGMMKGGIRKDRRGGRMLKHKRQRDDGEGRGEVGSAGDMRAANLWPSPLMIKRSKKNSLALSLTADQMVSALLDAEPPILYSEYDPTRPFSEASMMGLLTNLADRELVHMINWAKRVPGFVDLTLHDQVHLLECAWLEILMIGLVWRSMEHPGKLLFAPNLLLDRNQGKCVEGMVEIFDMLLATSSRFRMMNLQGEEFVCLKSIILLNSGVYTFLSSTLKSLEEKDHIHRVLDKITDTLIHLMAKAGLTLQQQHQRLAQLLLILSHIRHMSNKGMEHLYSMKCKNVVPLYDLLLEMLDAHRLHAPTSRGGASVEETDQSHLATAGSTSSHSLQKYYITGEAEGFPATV

[2] = target: ERβ (Homo sapiens, UniProt Q92731); test: ER-responsive luciferase reporter; type: cell-based; details: SKBR3 cells, ERβ expression plasmid, 24 h, mean ± SD of three experiments
[3] = test system: BG1Luc4E2 cells; test: Luciferase induction in stably transfected BG1Luc4E2 cells; type: cell-based, human; details: for MDL (minimal detection limit) [M], BG1Luc4E2 / EC50 / luciferase activity in BG1Luc4E2 cells, initial library screen: 24 h; for Maximum Induction (RLU), BG1Luc4E2: at 30 µM Genistein, 10 µM Br-ERβ-041, 0.1 nM E2, 1 µM PPT; for EC50: read-out: EC50 [M], BG1Luc4E2; for luciferase activity in BG1Luc4E2 cells, initial library screen: 10 µM, normalized to 1 nM E2, single screen in triplicate
[4] = test system: BG1LucERβc9 cells; test: Luciferase induction in stably transfected BG1LucERβc9 cells; type: cell-based, human; details: for MDL (minimal detection limit) [M], BG1LucERβc9 / EC50: 24 h; for Maximum Induction (RLU), BG1LucERβc9: at 30 µM Genistein, 10 µM Br-ERβ-041, 0.1 nM E2, 1 µM PPT; for EC50: read-out: EC50 [M], BG1LucERβc9
[5] = test system: BG1LucERβc9 cells; test: Antagonism of agonist-induced luciferase activity in BG1LucERβc9 cells; type: cell-based, human; details: for inhibition of E2-inducible reporter gene expression in BG1LucERβc9 cells: Supplemental Figure S5
[6] = test system: BG1Luc4E2 cells; test: Antagonism of agonist-induced luciferase activity in BG1Luc4E2 cells; type: cell-based, human; details: p < 0.05, Student's t-test
[7] = mean ± SD of 8–16 experiments, genistein and Br-ERβ-041 at 50% of maximum E2 activity

Chain of ERβ (Q92731 whole entry): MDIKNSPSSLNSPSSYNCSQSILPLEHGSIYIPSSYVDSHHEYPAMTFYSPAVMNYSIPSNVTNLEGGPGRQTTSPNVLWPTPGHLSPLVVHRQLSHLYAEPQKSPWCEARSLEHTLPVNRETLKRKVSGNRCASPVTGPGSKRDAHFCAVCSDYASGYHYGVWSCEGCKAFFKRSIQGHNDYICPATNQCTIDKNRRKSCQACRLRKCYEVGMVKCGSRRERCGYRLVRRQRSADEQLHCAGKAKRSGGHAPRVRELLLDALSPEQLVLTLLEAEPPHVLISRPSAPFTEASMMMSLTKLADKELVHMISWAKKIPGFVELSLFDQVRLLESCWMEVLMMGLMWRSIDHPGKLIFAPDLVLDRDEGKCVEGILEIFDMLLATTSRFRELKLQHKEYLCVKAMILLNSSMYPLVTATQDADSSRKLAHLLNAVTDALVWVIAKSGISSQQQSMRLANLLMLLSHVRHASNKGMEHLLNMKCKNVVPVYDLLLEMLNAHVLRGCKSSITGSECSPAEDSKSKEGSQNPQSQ

EC50 [1]: 2.5e-10 M | EC50 [M], ERβ [2]: No induction | EC50 [3, 7]: 6.7e-10 M | EC50 [4, 7]: 3.2e-09 M
Compound: CCCc1c(-c2ccc(O)cc2)nn(-c2ccc(O)cc2)c1-c1ccc(O)cc1 [PPT, 4,4’,4”-(4-Proply-[1H]-pyrazole-1,3,5-triyl)trisphenol]
MDL (minimal detection limit) [M], BG1Luc4E2 [3]: 1e-10 M | Maximum Induction (RLU), BG1Luc4E2 [3]: 11,422 ± 356 RLU | MDL (minimal detection limit) [M], BG1LucERβc9 [4]: 1e-10 M | Maximum Induction (RLU), BG1LucERβc9 [4]: 7,017 ± 188 RLU

Compound: O=c1c(-c2ccc(O)cc2)coc2cc(O)cc(O)c12 [Genistein, genistein]
MDL (minimal detection limit) [M], BG1Luc4E2 [3]: 1e-07 M | ERα-dependent reporter gene induction in BG1Luc4E2 cells at low concentration ([3]; Br-ERβ-041 31.6 nM, genistein 10 nM, preliminary studies, data not shown): failed to induce | EC50 ([3]; Homo sapiens): 1.7e-07 M | Maximum Induction (RLU), BG1Luc4E2 [3]: 17,623 ± 575 RLU | MDL (minimal detection limit) [M], BG1LucERβc9 [4]: 1e-08 M | EC50 ([4]; Homo sapiens): 2e-08 M | Maximum Induction (RLU), BG1LucERβc9 [4]: 8,804 ± 306 RLU

Compound: CC/C(=C(\c1ccc(O)cc1)c1ccc(OCCN(C)C)cc1)c1ccccc1 [Chemical 4-OHT, 4-hydroxy tamoxifen]
inhibition of E2-inducible reporter gene expression in BG1LucERβc9 cells [5]: inhibit E2-inducible reporter gene expression

Compound: CCNc1nc(Cl)nc(NC(C)(C)C#N)n1 [Chemical P12, cyanazine]
luciferase activity in BG1Luc4E2 cells, initial library screen [3]: not inducing significant luciferase activity above background

Compound: CC(C)(c1ccc(O)cc1)c1ccc(O)cc1 [Chemical P159, bisphenol A]
luciferase activity in BG1Luc4E2 cells, initial library screen [3]: high activity

Compound: C[C@]12CC[C@@H]3c4ccc(O)cc4C[C@@H](CCCCCCCCC[S+]([O-])CCCC(F)(F)C(F)(F)F)[C@H]3[C@@H]1CC[C@@H]2O (stereo partly drawn) [fulvestrant, Fulvestrant]
inhibition of E2-inducible reporter gene expression in BG1LucERβc9 cells [5]: inhibit E2-inducible reporter gene expression | concentration-dependent antagonism of E2-induced luciferase activity, BG1LucERβc9 vs BG1Luc4E2 cells ([5]; comparison of both cell lines): comparable | antagonism of Br-ERβ-041 induced activity in BG1Luc4E2 cells versus BG1LucERβc9 cells [6]: significantly more potent antagonist

EC50 ([3]; Homo sapiens): 1.6e-11 M | EC50 ([4]; Homo sapiens): 1.3e-11 M
Compound: C[C@]12CC[C@@H]3c4ccc(O)cc4CC[C@H]3[C@@H]1CC[C@@H]2O [Chemical E2, 17β-estradiol]
MDL (minimal detection limit) [M], BG1Luc4E2 [3]: 3e-12 M | Maximum Induction (RLU), BG1Luc4E2 [3]: 10,594 ± 250 RLU | MDL (minimal detection limit) [M], BG1LucERβc9 [4]: 1e-12 M | Maximum Induction (RLU), BG1LucERβc9 [4]: 5,236 ± 71 RLU
